Measured values taken from patent US7842707B2, “Peptidase inhibitors” (Nuada, LLC, priority 2004, dated 2010).

Molecular target: T1, Porcine dipeptidyl peptidase IV (Sus scrofa, UniProt P22411)
T1 construct: purchased Sigma D-7052
Assay: Inhibition of dipeptidyl peptidase IV (DPP-IV) activity, Ala-Pro-AFC fluorimetric assay
Assay type: biochemical
Details: for IC50: 8 point concentration curves in duplicate, Ala-Pro-AFC 20 μM, Tris-HCl pH 8.0, 37° C.; for inhibition at 0.1 µM: test compound at 100 nM, read-out: Percent Inhibition of DPP-IV at 100 nM; for inhibition at 0.1 µM / inhibition at 1 µM: in duplicate; for inhibition at 1 µM: test compound at 1 uM, read-out: Percent Inhibition of DPP-IV at 1 uM
Experimental: Porcine dipeptidyl peptidase IV (Sigma, D-7052) is used. Test compound and/or vehicle is pre-incubated with enzyme (70 μU ? /ml) in Tris-HCl pH 8.0 for 15 minutes at 37° C. Ala-Pro-AFC (20 μM) is then added for a further 30 minutes incubation period. The concentration of proteolytic product, AFC, is then read spectrofluorimetrically. 8 point concentration curves in duplicate are used to calculate IC50 values, or percent inhibition is measured in duplicate at two dose levels.

T1 sequence (P22411 whole entry): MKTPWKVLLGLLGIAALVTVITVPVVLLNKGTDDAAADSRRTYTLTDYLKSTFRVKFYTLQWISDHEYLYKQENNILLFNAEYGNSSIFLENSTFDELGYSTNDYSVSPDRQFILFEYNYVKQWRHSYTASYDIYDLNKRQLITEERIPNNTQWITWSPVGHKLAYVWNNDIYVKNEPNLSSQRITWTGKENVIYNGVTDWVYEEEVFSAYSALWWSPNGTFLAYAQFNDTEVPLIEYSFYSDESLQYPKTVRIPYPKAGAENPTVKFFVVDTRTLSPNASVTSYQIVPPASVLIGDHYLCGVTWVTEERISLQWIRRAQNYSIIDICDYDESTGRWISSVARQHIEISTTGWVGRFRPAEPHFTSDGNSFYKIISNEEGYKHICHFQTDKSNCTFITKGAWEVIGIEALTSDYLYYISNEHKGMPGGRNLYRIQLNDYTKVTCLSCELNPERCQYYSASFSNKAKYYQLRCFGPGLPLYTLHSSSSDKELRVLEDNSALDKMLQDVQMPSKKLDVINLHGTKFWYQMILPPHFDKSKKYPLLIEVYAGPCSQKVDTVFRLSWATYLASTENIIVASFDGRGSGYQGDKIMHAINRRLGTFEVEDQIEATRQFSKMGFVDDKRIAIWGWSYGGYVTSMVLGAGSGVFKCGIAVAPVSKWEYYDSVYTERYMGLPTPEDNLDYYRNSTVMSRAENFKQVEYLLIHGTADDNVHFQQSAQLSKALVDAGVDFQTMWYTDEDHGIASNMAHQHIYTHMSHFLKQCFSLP

Row | IC50 [nM] | inhibition at 0.1 µM [%] | inhibition at 1 µM [%] | SMILES
1 | 59 | – | – | CS(=O)(=O)NC12CC3CC(CC(NCC(=O)N4CCC[C@H]4C#N)(C3)C1)C2 [Example 1, (S)-1-[(3-methanesulfonamido-1-adamantyl)amino]acetyl-2-cyano-pyrrolidine]
2 | – | 60 | 92 | CCS(=O)(=O)NC12CC3CC(CC(NCC(=O)N4CCC[C@H]4C#N)(C3)C1)C2 [Example 2, (S)-1-[(3-ethanesulfonamido-1-adamantyl)amino]acetyl-2-cyano-pyrrolidine]
3 | – | 68 | 94 | N#C[C@@H]1CCCN1C(=O)CNC12CC3CC(C1)CC(NS(=O)(=O)CC(F)(F)F)(C3)C2 [Example 3, (S)-1-[(3-(2,2,2-trifluoro)-ethanesulfonamido-1-adamantyl)amino]acetyl-2-cyano-pyrrolidine]
4 | 46 | – | – | N#C[C@@H]1CCCN1C(=O)CNC12CC3CC(C1)CC(NS(=O)(=O)c1ccc(F)cc1)(C3)C2 [Example 4, (S)-1-[(3-(4-fluorophenyl)sulfonamido-1-adamantyl)amino]acetyl-2-cyano-pyrrolidine]
5 | – | 96 | 99 | N#Cc1ccc(NC23CC4CC(CC(NCC(=O)N5CCC[C@H]5C#N)(C4)C2)C3)nc1 [Example 5, 6-(3-(2-((S)-2-cyanopyrrolidin-1-yl)-2-oxoethylamino)-adamantylamino)nicotinonitrile]
6 | 61 | – | – | CN(C)S(=O)(=O)NC12CC3CC(CC(NCC(=O)N4CCC[C@H]4C#N)(C3)C1)C2 [Example 6, N′-(3-(2-((S)-2-cyanopyrrolidin-1-yl)-2-oxoethylamino)-adamantyl)-N,N-dimethyl-sulfamide]
7 | 70 | – | – | N#C[C@@H]1CCCN1C(=O)CNC12CC3CC(C1)CC(NC(=O)NS(=O)(=O)c1ccc(F)cc1)(C3)C2 [Example 7, 1-(3-(2-((S)-2-cyanopyrrolidin-1-yl)-2-oxoethylamino)-adamantyl)-3-(4-fluorophenylsulfonyl)urea]
